Publication PMC5668678 (Biochemistry and Biophysics Reports, 2015)

What was measured:
[1] = system: KCNQ1-M1 channel chimera; assay: Patch clamp of KCNQ1-M1 chimera currents; assay type: cell-based, human; details: 1 μM ChTX, HEK293 cells, turret and filter region mutant
[2] = system: KCNQ1-M2 chimera channel; assay: Patch clamp of KCNQ1-M2 chimera currents; assay type: cell-based, human; details: 1 μM ChTX, HEK293 cells, filter region mutant
[3] = system: KCNQ1-M3 chimera channel; assay: Patch clamp of KCNQ1-M3 chimera currents; assay type: cell-based, human; details: 1 μM ChTX, HEK293 cells, turret region mutant
[4] = system: KCNQ1-K318M channel; assay: Patch clamp of KCNQ1 single residue mutant at Lys318, sensitivity to ChTX; assay type: cell-based, human; details: site-directed mutant, HEK293 cells, Fig. 3
[5] = system: KCNQ1-Q321V channel; assay: Patch clamp of KCNQ1 single residue mutant at Q321, sensitivity to ChTX; assay type: cell-based, human; details: site-directed mutant, HEK293 cells, Fig. 3
[6] = system: MmKv2 channel; details: ref [24]; cited from earlier work
[7] = system: MmKv1 channel; details: versus Kv1.3; ref [24]; cited from earlier work

## charybdotoxin [ChTX]
[1]
  inhibition of KCNQ1-M1 channel currents: effectively inhibited
[2]
  inhibition of KCNQ1-M2 channel currents: effectively inhibited
[3]
  inhibition of KCNQ1-M3 channel currents: not effectively inhibited
[4]
  effect of residue Lys318 on the binding of ChTX: found to affect the binding of ChTX
[5]
  effect of residue Q321 on the binding of ChTX: did not affect the binding of ChTX
[6]
  sensitivity of MmKv2 toward scorpion venom and ChTX: completely insensitive
[7]
  sensitivity of MmKv1 toward scorpion venom and ChTX, compared with Kv1.3: weaker sensitivity
